From patent US20250161307A1, “PYRAZOLOPYRIMIDINES AS MODULATORS OF SPERMINE OXIDASE” (Janssen Pharmaceutica NV, priority 2022, published 2025)

Assays:
hPAOX = hPAOX (Homo sapiens (Human), UniProt Q6QHF9); assay: Human PAOX assay (HyPerBlu chemiluminescent detection of hydrogen peroxide); format: biochemical; details: 60 pM recombinant PAOX, 20 μM N-acetylspermine substrate
Summary of the method: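 His-tagged recombinant PAOX expressed in sf9 insect cells was used at 60 pM, with 20 μM N-acetylspermine as substrate. Hydrogen peroxide formed by the reaction was detected by chemiluminescence from a boronate probe (HyPerBlu). Inhibition appears as lower luminescence.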

SMOX = SMOX (Homo sapiens (Human), UniProt Q9NWM0); assay: Human SMOX assay (HyPerBlu chemiluminescent detection of hydrogen peroxide); format: biochemical; details: 2.5 nM full length hSMOX, spermine substrate, 1 h at room temperature, luminescence read; read-out: SMOx_IC50
Summary of the method: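 Full-length N-His human SMOX (2.5 nM, E. coli-expressed) was incubated 1 h at room temperature with 30 µM spermine, 11-point compound dilutions and 1.25% DMSO in pH 7.4 HEPES/NaCl/EGTA buffer. H2O2 was detected by HyPerBlu chemiluminescence after 30 min, and IC50 came from dose–response fits.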

Sequence of hPAOX (Q6QHF9 whole entry): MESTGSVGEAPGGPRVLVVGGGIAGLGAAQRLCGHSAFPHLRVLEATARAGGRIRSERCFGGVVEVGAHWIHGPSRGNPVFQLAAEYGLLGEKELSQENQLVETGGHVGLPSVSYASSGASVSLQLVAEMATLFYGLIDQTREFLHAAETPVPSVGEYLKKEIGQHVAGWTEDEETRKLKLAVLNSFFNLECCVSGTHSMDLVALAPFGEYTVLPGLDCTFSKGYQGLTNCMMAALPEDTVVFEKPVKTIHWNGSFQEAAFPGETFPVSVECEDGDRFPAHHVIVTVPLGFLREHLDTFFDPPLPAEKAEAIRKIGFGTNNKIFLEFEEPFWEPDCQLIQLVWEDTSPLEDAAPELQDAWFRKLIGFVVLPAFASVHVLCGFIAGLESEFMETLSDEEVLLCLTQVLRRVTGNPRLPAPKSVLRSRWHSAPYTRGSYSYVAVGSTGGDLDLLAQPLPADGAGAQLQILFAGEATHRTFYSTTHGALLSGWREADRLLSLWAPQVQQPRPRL
Sequence of SMOX (Q9NWM0 whole entry): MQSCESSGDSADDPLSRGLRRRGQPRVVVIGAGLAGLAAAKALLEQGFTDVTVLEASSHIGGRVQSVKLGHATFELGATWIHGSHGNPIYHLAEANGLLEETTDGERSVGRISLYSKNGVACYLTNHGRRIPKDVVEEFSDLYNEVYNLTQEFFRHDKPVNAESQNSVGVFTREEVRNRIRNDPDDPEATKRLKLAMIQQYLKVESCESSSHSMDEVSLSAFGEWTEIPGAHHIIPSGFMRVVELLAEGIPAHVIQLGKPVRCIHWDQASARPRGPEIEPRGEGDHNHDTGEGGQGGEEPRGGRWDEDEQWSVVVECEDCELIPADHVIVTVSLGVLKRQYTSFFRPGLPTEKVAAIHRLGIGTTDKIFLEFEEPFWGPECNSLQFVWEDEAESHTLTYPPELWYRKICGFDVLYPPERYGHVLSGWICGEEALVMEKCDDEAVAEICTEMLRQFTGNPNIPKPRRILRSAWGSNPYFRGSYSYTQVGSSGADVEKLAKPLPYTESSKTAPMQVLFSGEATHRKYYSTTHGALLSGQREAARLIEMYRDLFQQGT

Compound | IC50 (hPAOX) | IC50 (SMOX)
O=C(NCCCn1ccnc1)c1cc2nc(-c3ccc(C(F)(F)F)cc3)cc(-c3ccccc3)n2n1 [Example 101, N-(3-(1H-imidazol-1-yl)propyl)-7-phenyl-5-(4-(trifluoromethyl)phenyl)pyrazolo[1,5-a]pyrimidine-2-carboxamide] | 181 nM | 72 nM
CN1CC(NC(=O)c2cc3nc(-c4ccccn4)cc(-c4ccccc4)n3n2)C1 [Example 102, N-(1-methylazetidin-3-yl)-7-phenyl-5-(pyridin-2-yl)pyrazolo[1,5-a]pyrimidine-2-carboxamide] | 10000 nM | 1550 nM
CN1CC(NC(=O)c2cc3nc(-c4ccccc4C(F)(F)F)cc(-c4ccccc4)n3n2)C1 [Example 103, N-(1-methylazetidin-3-yl)-7-phenyl-5-(2-(trifluoromethyl)phenyl)pyrazolo[1,5-a]pyrimidine-2-carboxamide] | 547 nM | 3120 nM
CN1CC(NC(=O)c2cc3nc(-c4ccccc4F)cc(-c4ccccc4)n3n2)C1 [Example 104, 5-(2-fluorophenyl)-N-(1-methylazetidin-3-yl)-7-phenylpyrazolo[1,5-a]pyrimidine-2-carboxamide] | 1400 nM | 1290 nM
O=C(NCCCn1ccnc1)c1cc2nc(-c3ccccc3)cc(C3CCCC3)n2n1 [Example 108, N-(3-(1H-imidazol-1-yl)propyl)-7-cyclopentyl-5-phenylpyrazolo[1,5-a]pyrimidine-2-carboxamide] | 840 nM | 305 nM
O=C(NCCCn1ccnc1)c1cc2nc(-c3ccccc3)cc(C3CCCO3)n2n1 (stereo not shown) [Example 110, N-(3-(1H-imidazol-1-yl)propyl)-5-phenyl-7-(tetrahydrofuran-2-yl)pyrazolo[1,5-a]pyrimidine-2-carboxamide] | 3070 nM | 1750 nM
CC(C)Cc1cc(-c2ccccc2)nc2cc(C(=O)NCCCn3ccnc3)nn12 [Example 112, N-(3-(1H-imidazol-1-yl)propyl)-7-isobutyl-5-phenylpyrazolo[1,5-a]pyrimidine-2-carboxamide] | 1940 nM | 1630 nM
O=C(NCCCn1ccnc1)c1cc2nc(-c3ccccc3)cc(C3CC3)n2n1 [Example 113, N-(3-(1H-imidazol-1-yl)propyl)-7-cyclopropyl-5-phenylpyrazolo[1,5-a]pyrimidine-2-carboxamide] | 2290 nM | 1200 nM

Further compounds by falling IC50 (hPAOX), results first:

IC50 (hPAOX) | IC50 (SMOX) | Compound
8460 nM | 776 nM | O=C(NCCCn1ccnc1)c1cc2nc(-c3ccccc3)cc(C3CCCCN3)n2n1 (stereo not shown) [Example 114, N-(3-(1H-imidazo-1-yl)propyl)-5-phenyl-7-(piperidin-2.yl)pyrazolo[1,5-a]pyrimidine-2-carboxamide]
666 nM | 114 nM | CN1CC(NC(=O)c2cc3nc(-c4cccc(F)c4)cc(-c4ccccc4)n3n2)C1 [Example 105, 5-(3-fluorophenyl)-N-(1-methylazetidin-3-yl)-7-phenylpyrazolo[1,5-a]pyrimidine-2-carboxamide]
485 nM | 164 nM | CN1CC(NC(=O)c2cc3nc(-c4ccc(F)cc4)cc(-c4ccccc4)n3n2)C1 [Example 106, 5-(4-fluorophenyl)-N-(1-methylazetidin-3-yl)-7-phenylpyrazolo[1,5-a]pyrimidine-2-carboxamide]
470 nM | 956 nM | O=C(NCCCn1ccnc1)c1cc2nc(-c3ccccc3)cc(C3CCC3)n2n1 [Example 109, N-(3-(1H-imidazol-1-yl)propyl)-7-cyclobutyl-5-phenylpyrazolo[1,5-a]pyrimidine-2-carboxamide]
213 nM | 282 nM | O=C(NC1CNC1)c1cc2nc(-c3ccccc3)cc(-c3ccccc3)n2n1 [Example 115, N-(azetidin-3-yl)-5,7-diphenylpyrazolo[1,5-a]pyrimidine-2-carboxamide]
119 nM | 296 nM | NCCCNC(=O)c1cc2nc(-c3ccccc3)cc(-c3ccccc3)n2n1 [Example 116, N-(3-aminopropyl)-5,7-diphenylpyrazolo[1,5-a]pyrimidine-2-carboxamide]
